From ChEMBL document CHEMBL3508693 (2016)

What was measured:
CYP2C19 [1] = molecular target: T1, CYP2C19 (Homo sapiens, UniProt P33261); experiment: Inhibitory activity of 20 uM SPP100 on 1131 Pmoles of cDNA-derived CYP2C19 enzyme in microsome prepared from human lymphoblastoid cell line; assay type: ADME, microsomes; parameters: conc 20 uM, interact cpd conc 50 uM; details: probe (S)-mephenytoin
[2] = Oral clearance of SPP100 following single oral dose of SPP100 150 mg capsule studied in healthy human; assay type: ADME, organism-based; details: plasma
CYP2C19 [3] = molecular target: T1, CYP2C19; experiment: Inhibitory activity of 200 uM SPP100 on 1156 Pmoles of cDNA-derived CYP2C19 enzyme in microsome prepared from human lymphoblastoid cell line; assay type: ADME, microsomes; parameters: conc 200 uM, interact cpd conc 50 uM; details: probe (S)-mephenytoin (50 uM)
CYP2C19 [4] = molecular target: T1, CYP2C19; experiment: Inhibition of CYP2C19 in human liver microsomes from 10 healthy donors at 200 uM aliskiren (SPP100); assay type: ADME, Microsome; parameters: conc 200 uM; details: probe S-mephenytoin (4'-hydroxylation)
[5] = Plasma concentration of [14C] aliskiren hemifumarate in first 24h following single oral dose of [14C] aliskiren hemifumarate at 500 mg.Kg-1 level in mouse; assay type: ADME, organism-based, TgRasH2; details: in vivo
[6] = Excretion of radioactivity (0-24h) in urine following single oral dose of 100 mg.Kg-1 [14C] aliskiren hemifumarate in rat; assay type: ADME, organism-based, Albino HAN:WIST; details: in vivo
[7] = Excretion of radioactivity (0-24h) in faeces following single intravenous dose of 10 mg.Kg-1 [14C] aliskiren hemifumarate in rat; assay type: ADME, organism-based, Albino HAN:WIST, Feces; details: in vivo
[8] = Cmax of radioactivity following repeated oral administration of [14C] aliskiren hemifumarate at 100 mg.Kg-1 level studied after 2h of dosing on day 10 in rat; assay type: ADME, organism-based, Albino HAN:WIST; details: in vivo, read-out: Cmax(10)
[9] = Mean excretion of radioactivity (72-96h) in urine and faeces following single oral dose of 100 mg.Kg-1 [14C] aliskiren hemifumarate in rat; assay type: ADME, organism-based, Albino HAN:WIST, Urine/Feces; details: in vivo
[10] = Concentration of radioactivity in the brown fat following repeated oral administration of [14C] aliskiren hemifumarate at 100 mg.Kg-1 level studied at 24h after 7th dose in rat; assay type: ADME, organism-based, Albino HAN:WIST, Brown adipose tissue; details: in vivo
Cytochrome P450 2D6 = Cytochrome P450 2D6 (Homo sapiens, UniProt P10635); experiment: Activity of human recombinant CYP2D6 assessed as enzyme contribution (% total relative CL) towards [14C]SPP100 hemifumarate metabolism in human liver microsome; assay type: ADME; details: microsomes
[11] = Concentration of radioactivity in carcass following intravenous administration of [14C] aliskiren hemifumarate at 10 mg.Kg-1 level measured on day 7 in rat; assay type: ADME, organism-based, Lister-Hooded; details: in vivo
[12] = Excretion (0-24h) of radioactivity in faeces following intravenous administration of [14C] aliskiren hemifumarate at 1 mg.Kg-1 level in marmoset; assay type: ADME, organism-based, Callithrix jacchus, Feces; details: in vivo
Cytochrome P450 4F3 = molecular target: T2, Cytochrome P450 4F3 (Homo sapiens, UniProt Q08477); experiment: Metabolic clearance (ul.min.nmol-1 CYP) of aliskiren hemifumarate for CYP4F3B was determined in human liver microsome incubated with [14C]SPP100 hemifumarate; assay type: ADME; details: microsomes
T2 sequence (Q08477 whole entry): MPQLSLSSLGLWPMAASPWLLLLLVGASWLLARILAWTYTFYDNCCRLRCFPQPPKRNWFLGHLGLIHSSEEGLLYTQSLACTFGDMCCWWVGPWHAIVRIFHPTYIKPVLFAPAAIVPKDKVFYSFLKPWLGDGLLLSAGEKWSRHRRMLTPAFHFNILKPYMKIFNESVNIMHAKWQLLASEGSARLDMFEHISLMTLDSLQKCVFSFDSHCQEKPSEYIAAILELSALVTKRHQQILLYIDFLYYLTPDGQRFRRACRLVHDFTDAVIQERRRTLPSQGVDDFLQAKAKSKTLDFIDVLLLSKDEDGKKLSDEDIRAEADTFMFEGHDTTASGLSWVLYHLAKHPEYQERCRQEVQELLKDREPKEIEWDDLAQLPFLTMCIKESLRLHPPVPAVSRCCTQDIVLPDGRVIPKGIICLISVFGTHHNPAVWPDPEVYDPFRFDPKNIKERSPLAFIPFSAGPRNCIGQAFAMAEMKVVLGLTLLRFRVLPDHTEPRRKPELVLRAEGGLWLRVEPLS

[13] = Excretion of radioactivity (0-72h) in faeces following single oral dose of 500 mg.Kg-1 [14C] aliskiren hemifumarate in mouse; assay type: ADME, organism-based, TgRasH2, Feces; details: in vivo
[14] = Cmaxspec of aliskiren hemifumarate following 2 week oral dosing of aliskiren hemifumarate at 100 mg.Kg-1 level studied on day 14 in female Callithrix jacchus; assay type: ADME, organism-based, Plasma; details: marmoset, in vivo, 336 h
[15] = Effect of 2 week oral dosing of aliskiren hemifumarate at 50 mg.Kg-1 level on plasma creatinine level in female Callithrix jacchus; assay type: toxicity, organism-based; details: marmoset, 336 h
[16] = Cmax of unlabeled aliskiren hemifumarate following single intravenous dose of aliskiren hemifumarate at 10 mg.Kg-1 level in mouse; assay type: ADME, organism-based; details: TgRasH2, mouse, plasma
[17] = AUC of aliskiren hemifumarate following 8 day once-daily dosing of SPP100B oral solution at 160 mg level studied on day 8 in men; assay type: ADME, organism-based; details: male, human, plasma
[18] = Cmax of aliskiren hemifumarate following single dosing of SPP100B oral solution at 40 mg level studied on day 1 in men; assay type: ADME, organism-based; details: male, human, plasma
[19] = Tmax of aliskiren hemifumarate following 2 week oral dosing of aliskiren hemifumarate at 10 mg.Kg-1 level studied on day 1 in female Callithrix jacchus; assay type: ADME, organism-based; details: marmoset, plasma
[20] = Tmax of aliskiren hemifumarate following 2 week oral dosing of aliskiren hemifumarate at 100 mg.Kg-1 level studied on day 14 in female Callithrix jacchus; assay type: ADME, organism-based; details: marmoset, plasma
[21] = Effect of 2 week oral dosing of aliskiren hemifumarate at 50 mg.Kg-1 level on hematological parameter values in male Callithrix jacchus; assay type: toxicity, organism-based, Plasma; details: marmoset, in vivo, 336 h
[22] = Tmax of aliskiren hemifumarate following 2 week oral dosing of aliskiren hemifumarate at 50 mg.Kg-1 level studied on day 1 in male Callithrix jacchus; assay type: ADME, organism-based; details: marmoset, plasma
[23] = AUCspec of aliskiren hemifumarate following 2 week oral dosing of aliskiren hemifumarate at 50 mg.Kg-1 level studied on day 1 in female Callithrix jacchus; assay type: ADME, organism-based, Plasma; details: marmoset, in vivo, 336 h
[24] = Cmax of aliskiren hemifumarate following single dosing of SPP100B oral solution at 640 mg level studied on day 1 in men; assay type: ADME, organism-based; details: male, human, plasma

T1 sequence (P33261 whole entry): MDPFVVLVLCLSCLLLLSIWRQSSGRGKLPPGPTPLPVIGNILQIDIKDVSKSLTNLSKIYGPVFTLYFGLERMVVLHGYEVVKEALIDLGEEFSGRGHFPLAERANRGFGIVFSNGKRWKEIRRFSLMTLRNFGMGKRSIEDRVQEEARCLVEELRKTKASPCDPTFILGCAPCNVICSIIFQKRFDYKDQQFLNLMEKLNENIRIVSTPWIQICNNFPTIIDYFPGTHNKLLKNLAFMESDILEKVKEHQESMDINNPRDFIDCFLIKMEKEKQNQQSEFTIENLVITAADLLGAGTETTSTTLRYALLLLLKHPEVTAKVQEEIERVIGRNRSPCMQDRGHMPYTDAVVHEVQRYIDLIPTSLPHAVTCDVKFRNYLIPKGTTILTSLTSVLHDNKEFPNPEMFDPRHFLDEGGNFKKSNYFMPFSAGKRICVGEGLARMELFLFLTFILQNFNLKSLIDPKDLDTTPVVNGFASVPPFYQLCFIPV
Cytochrome P450 2D6, sequence (P10635 whole entry): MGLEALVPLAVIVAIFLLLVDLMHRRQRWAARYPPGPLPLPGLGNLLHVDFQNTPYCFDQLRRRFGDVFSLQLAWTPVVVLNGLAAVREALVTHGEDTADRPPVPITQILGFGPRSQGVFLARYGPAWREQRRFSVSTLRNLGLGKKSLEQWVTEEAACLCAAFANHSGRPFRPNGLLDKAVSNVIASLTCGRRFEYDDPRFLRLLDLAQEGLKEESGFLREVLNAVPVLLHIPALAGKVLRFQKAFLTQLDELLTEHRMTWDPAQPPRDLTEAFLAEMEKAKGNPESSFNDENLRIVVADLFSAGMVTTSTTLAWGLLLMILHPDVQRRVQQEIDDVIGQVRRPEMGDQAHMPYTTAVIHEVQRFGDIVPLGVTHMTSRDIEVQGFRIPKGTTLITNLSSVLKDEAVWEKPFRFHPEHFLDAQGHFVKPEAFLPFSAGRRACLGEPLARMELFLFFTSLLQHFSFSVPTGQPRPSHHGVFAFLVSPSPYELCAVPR

COCCCOc1cc(C[C@@H](C[C@H](N)[C@@H](O)C[C@H](C(=O)NCC(C)(C)C(N)=O)C(C)C)C(C)C)ccc1OC
inhibition at 20 µM (CYP2C19 [1]): 5.1%
CL/F [2]: 5350 mL/min
inhibition at 200 µM (CYP2C19 [3]): 3%
inhibition at 200 µM (CYP2C19 [4]): 42.5%

COCCCOc1cc(C[C@@H](C[C@H](N)[C@@H](O)C[C@H](C(=O)NCC([14CH3])([14CH3])C(N)=O)C(C)C)C(C)C)ccc1OC.O=C(O)/C=C/C(=O)O
Compound recovery [5]: 56%
Radiolabel recovery [6]: 0.47%
Radiolabel recovery [7]: 55.7%
Cmax [8]: 0.473 µM
Radiolabel recovery [9]: 2.54%
Radiolabel recovery [10]: OUTCOME = Detected
Activity (Cytochrome P450 2D6): 0.38%
Radiolabel recovery [11]: OUTCOME = Observed, VALUE = residues of radioactivity remained in the carcass at 7 days after dosing
Radiolabel recovery [12]: 51.5%
CL (Cytochrome P450 4F3): 24 µL·min/nmol
Radiolabel recovery [13]: 1.98%

COCCCOc1cc(C[C@@H](C[C@H](N)[C@@H](O)C[C@H](C(=O)NCC(C)(C)C(N)=O)C(C)C)C(C)C)ccc1OC.COCCCOc1cc(C[C@@H](C[C@H](N)[C@@H](O)C[C@H](C(=O)NCC(C)(C)C(N)=O)C(C)C)C(C)C)ccc1OC.O=C(O)/C=C/C(=O)O [ALISKIREN FUMARATE]
Cmax normalised [14]: 0.106 (ug/ml)/(mg/kg)
CREAT_CHANGE_BY [15]: 130%
Cmax [16]: 19.8 µM
AUC at 192 h [17]: 363 ng·h/mL
Cmax [18]: 5.1 ng/mL
Tmax [19]: 1 h
Tmax [20]: 2 h
Change in hematology [21]: OUTCOME = Hematological parameter values did not differ from control values. No animals died during the study.
Tmax [22]: 1 h
AUC normalised [23]: 1.12 ((ug.h.ml-1)/(mg/kg)
Cmax [24]: 146 ng/mL
